Legend:
IGROV1 = assay: NCI-60 5-dose screen; format: cell-based, human; conditions: for GI50 / CC50: Homo sapiens; for GI50: IGROV-1; for CC50: IGROV-1, read-out: LC50 (the source's name)
MDA-MB-468 = assay: NCI-60 5-dose screen; format: cell-based, human; conditions: for GI50 / CC50: Homo sapiens; for CC50: read-out: LC50 (the source's name)
HOP-62 = assay: NCI-60 5-dose screen; format: cell-based, human; conditions: for GI50 / CC50: Homo sapiens; for CC50: read-out: LC50 (the source's name)
SK-OV-3 = assay: NCI-60 5-dose screen; format: cell-based, human; conditions: for GI50 / CC50: Homo sapiens; for CC50: read-out: LC50 (the source's name)
A549/ATCC = assay: NCI-60 5-dose screen; format: cell-based, human; conditions: for GI50 / CC50: Homo sapiens; for CC50: read-out: LC50 (the source's name)
RXF 393 = assay: NCI-60 5-dose screen; format: cell-based, human; conditions: for GI50 / CC50: Homo sapiens; for CC50: read-out: LC50 (the source's name)
BT-549 = assay: NCI-60 5-dose screen; format: cell-based, human; conditions: for GI50 / CC50: Homo sapiens; for CC50: read-out: LC50 (the source's name)
HL-60(TB) = assay: NCI-60 5-dose screen; format: cell-based, human; conditions: for GI50 / CC50: Homo sapiens; for CC50: read-out: LC50 (the source's name)
HOP-92 = assay: NCI-60 5-dose screen; format: cell-based, human; conditions: for GI50 / CC50: Homo sapiens; for CC50: read-out: LC50 (the source's name)
SNB-75 = assay: NCI-60 5-dose screen; format: cell-based, human; conditions: for GI50 / CC50: Homo sapiens; for CC50: read-out: LC50 (the source's name)
NCI-H226 = assay: NCI-60 5-dose screen; format: cell-based, human; conditions: for GI50 / CC50: Homo sapiens; for CC50: read-out: LC50 (the source's name)
M14 = assay: NCI-60 5-dose screen; format: cell-based, human; conditions: for GI50 / CC50: Homo sapiens; for CC50: read-out: LC50 (the source's name)
MDA-MB-231/ATCC = assay: NCI-60 5-dose screen; format: cell-based, human; conditions: for GI50 / CC50: Homo sapiens; for CC50: read-out: LC50 (the source's name)
MOLT-4 = assay: NCI-60 5-dose screen; format: cell-based, human; conditions: for GI50 / CC50: Homo sapiens; for CC50: read-out: LC50 (the source's name)
HCT-116 = assay: NCI-60 5-dose screen; format: cell-based, human; conditions: for GI50 / CC50: Homo sapiens; for CC50: read-out: LC50 (the source's name)
T-47D = assay: NCI-60 5-dose screen; format: cell-based, human; conditions: for GI50 / CC50: Homo sapiens, T47D; for CC50: read-out: LC50 (the source's name)
SK-MEL-2 = assay: NCI-60 5-dose screen; format: cell-based, human; conditions: for GI50 / CC50: Homo sapiens; for CC50: read-out: LC50 (the source's name)
KM12 = assay: NCI-60 5-dose screen; format: cell-based, human; conditions: for GI50 / CC50: Homo sapiens; for CC50: read-out: LC50 (the source's name)
RPMI-8226 = assay: NCI-60 5-dose screen; format: cell-based, human; conditions: for GI50 / CC50: Homo sapiens; for CC50: read-out: LC50 (the source's name)
OVCAR-3 = assay: NCI-60 5-dose screen; format: cell-based, human; conditions: for GI50 / CC50: Homo sapiens; for CC50: read-out: LC50 (the source's name)
CCRF-CEM = assay: NCI-60 5-dose screen; format: cell-based; conditions: Homo sapiens; for CC50: read-out: LC50 (the source's name)
COLO 205 = assay: NCI-60 5-dose screen; format: cell-based, human; conditions: for GI50 / CC50: Homo sapiens; for CC50: read-out: LC50 (the source's name)
TK-10 = assay: NCI-60 5-dose screen; format: cell-based, human; conditions: for GI50 / CC50: Homo sapiens; for CC50: read-out: LC50 (the source's name)
SR = assay: NCI-60 5-dose screen; format: cell-based, human; conditions: for GI50 / CC50: Homo sapiens; for CC50: read-out: LC50 (the source's name)
ACHN = assay: NCI-60 5-dose screen; format: cell-based, human; conditions: for GI50 / CC50: Homo sapiens; for CC50: read-out: LC50 (the source's name)
MALME-3M = assay: NCI-60 5-dose screen; format: cell-based, human; conditions: for GI50 / CC50: Homo sapiens, Malme-3M; for CC50: read-out: LC50 (the source's name); for TGI: MALME-3M
SF-268 = assay: NCI-60 5-dose screen; format: cell-based, human; conditions: for GI50 / CC50: Homo sapiens; for CC50: read-out: LC50 (the source's name)
LOX IMVI = assay: NCI-60 5-dose screen; format: cell-based, human; conditions: for GI50 / CC50: Homo sapiens; for CC50: read-out: LC50 (the source's name)
A498 = assay: NCI-60 5-dose screen; format: cell-based, human; conditions: for GI50 / CC50: Homo sapiens; for CC50: read-out: LC50 (the source's name)
[1] = test system: Gram-positive and Gram-negative bacteria; parameters: method as in PMID 38398524; conditions: cited from earlier work

O=C1C(Nc2ccc(I)cc2)=CC(c2ccc(C(F)(F)F)cc2)N1c1ccc(I)cc1 (centres unmarked) [3e]
TGI (IGROV1): >100 µM
GI50 (IGROV1): > 100 µM
CC50 (IGROV1): > 100 µM
TGI (MDA-MB-468): >100 µM
GI50 (MDA-MB-468): 3.24 µM
CC50 (MDA-MB-468): > 100 µM
TGI (HOP-62): >100 µM
GI50 (HOP-62): > 100 µM
CC50 (HOP-62): > 100 µM
TGI (SK-OV-3): >100 µM
GI50 (SK-OV-3): > 100 µM
CC50 (SK-OV-3): > 100 µM
TGI (A549/ATCC): >100 µM
GI50 (A549/ATCC): > 100 µM
CC50 (A549/ATCC): > 100 µM
TGI (RXF 393): >100 µM
GI50 (RXF 393): 4.23 µM
CC50 (RXF 393): > 100 µM
TGI (BT-549): >100 µM
GI50 (BT-549): 9.61 µM
CC50 (BT-549): > 100 µM
TGI (HL-60(TB)): >100 µM
GI50 (HL-60(TB)): 4.48 µM
CC50 (HL-60(TB)): > 100 µM
TGI (HOP-92): 7.22 µM
GI50 (HOP-92): 3.15 µM
CC50 (HOP-92): > 100 µM
TGI (SNB-75): 5.06 µM
GI50 (SNB-75): 2600 nM
CC50 (SNB-75): 9.85 µM
TGI (NCI-H226): >100 µM
GI50 (NCI-H226): 8.48 µM
CC50 (NCI-H226): > 100 µM
TGI (M14): >100 µM
GI50 (M14): 8.94 µM
CC50 (M14): > 100 µM
TGI (MDA-MB-231/ATCC): >100 µM
GI50 (MDA-MB-231/ATCC): 5.36 µM
CC50 (MDA-MB-231/ATCC): > 100 µM
TGI (MOLT-4): >100 µM
GI50 (MOLT-4): 2920 nM
CC50 (MOLT-4): > 100 µM
TGI (HCT-116): >100 µM
GI50 (HCT-116): 5.92 µM
CC50 (HCT-116): > 100 µM
TGI (T-47D): 7.57 µM
GI50 (T-47D): 2740 nM
CC50 (T-47D): > 100 µM
TGI (SK-MEL-2): >100 µM
GI50 (SK-MEL-2): > 100 µM
CC50 (SK-MEL-2): > 100 µM
TGI (KM12): >100 µM
GI50 (KM12): > 100 µM
CC50 (KM12): > 100 µM
TGI (RPMI-8226): >100 µM
GI50 (RPMI-8226): 5.38 µM
CC50 (RPMI-8226): > 100 µM
TGI (OVCAR-3): >100 µM
GI50 (OVCAR-3): 7.48 µM
CC50 (OVCAR-3): > 100 µM
GI50 (CCRF-CEM): 3.35 µM
CC50 (CCRF-CEM): > 100 µM
TGI (COLO 205): >100 µM
GI50 (COLO 205): 4.57 µM
CC50 (COLO 205): > 100 µM
TGI (TK-10): >100 µM
GI50 (TK-10): > 100 µM
CC50 (TK-10): > 100 µM
TGI (SR): >100 µM
GI50 (SR): 2840 nM
CC50 (SR): > 100 µM
TGI (ACHN): >100 µM
GI50 (ACHN): 4.05 µM
CC50 (ACHN): > 100 µM
GI50 (MALME-3M): 2000 nM
CC50 (MALME-3M): 9.34 µM
TGI (MALME-3M): 4.32 µM
TGI (SF-268): >100 µM
GI50 (SF-268): 4.66 µM
CC50 (SF-268): > 100 µM
TGI (LOX IMVI): >100 µM
GI50 (LOX IMVI): > 100 µM
CC50 (LOX IMVI): > 100 µM
TGI (A498): 3.56 µM
GI50 (A498): 1950 nM
CC50 (A498): 6.5 µM

O=C1C(Nc2ccc(I)cc2)=CC(c2ccc(O)cc2)N1c1ccc(I)cc1 (centres unmarked) [3g]
antibacterial activity (in words) [1]: highest antibacterial activity

O=C1C(Nc2ccc(I)cc2)=CC(c2ccc(O)c(O)c2)N1c1ccc(I)cc1 (centres unmarked) [3h]
TGI (IGROV1): >100 µM
GI50 (IGROV1): > 100 µM
CC50 (IGROV1): > 100 µM
TGI (MDA-MB-468): >100 µM
GI50 (MDA-MB-468): 3.1 µM
CC50 (MDA-MB-468): > 100 µM
TGI (HOP-62): >100 µM
GI50 (HOP-62): > 100 µM
CC50 (HOP-62): > 100 µM
TGI (SK-OV-3): >100 µM
GI50 (SK-OV-3): 7.6 µM
CC50 (SK-OV-3): > 100 µM
TGI (A549/ATCC): >100 µM
GI50 (A549/ATCC): > 100 µM
CC50 (A549/ATCC): > 100 µM
TGI (RXF 393): >100 µM
GI50 (RXF 393): 6.25 µM
CC50 (RXF 393): > 100 µM
TGI (BT-549): >100 µM
GI50 (BT-549): > 100 µM
CC50 (BT-549): > 100 µM
TGI (HL-60(TB)): 4.28 µM
GI50 (HL-60(TB)): 2.19 µM
CC50 (HL-60(TB)): 8.38 µM
TGI (HOP-92): 8.97 µM
GI50 (HOP-92): 4.08 µM
CC50 (HOP-92): > 100 µM
TGI (SNB-75): >100 µM
GI50 (SNB-75): > 100000 nM
CC50 (SNB-75): > 100 µM
TGI (NCI-H226): >100 µM
GI50 (NCI-H226): > 100 µM
CC50 (NCI-H226): > 100 µM
TGI (M14): >100 µM
GI50 (M14): 5.34 µM
CC50 (M14): > 100 µM
TGI (MDA-MB-231/ATCC): >100 µM
GI50 (MDA-MB-231/ATCC): > 100 µM
CC50 (MDA-MB-231/ATCC): > 100 µM
TGI (MOLT-4): 4.17 µM
GI50 (MOLT-4): 2080 nM
CC50 (MOLT-4): 8.35 µM
TGI (HCT-116): >100 µM
GI50 (HCT-116): 7.43 µM
CC50 (HCT-116): > 100 µM
TGI (T-47D): >100 µM
GI50 (T-47D): 2410 nM
CC50 (T-47D): > 100 µM
TGI (SK-MEL-2): >100 µM
GI50 (SK-MEL-2): 6.64 µM
CC50 (SK-MEL-2): > 100 µM
TGI (KM12): >100 µM
GI50 (KM12): 5.22 µM
CC50 (KM12): > 100 µM
TGI (RPMI-8226): 6.01 µM
GI50 (RPMI-8226): 2.4 µM
CC50 (RPMI-8226): > 100 µM
TGI (OVCAR-3): >100 µM
GI50 (OVCAR-3): 9.16 µM
CC50 (OVCAR-3): > 100 µM
GI50 (CCRF-CEM): 3.09 µM
CC50 (CCRF-CEM): 3.61 µM
TGI (COLO 205): >100 µM
GI50 (COLO 205): 6.65 µM
CC50 (COLO 205): > 100 µM
TGI (TK-10): >100 µM
GI50 (TK-10): > 100 µM
CC50 (TK-10): > 100 µM
TGI (SR): 2.99 µM
GI50 (SR): 1550 nM
CC50 (SR): 5.75 µM
TGI (ACHN): >100 µM
GI50 (ACHN): > 100 µM
CC50 (ACHN): > 100 µM
GI50 (MALME-3M): 2680 nM
CC50 (MALME-3M): > 100 µM
TGI (MALME-3M): >100 µM
TGI (SF-268): >100 µM
GI50 (SF-268): 6.04 µM
CC50 (SF-268): > 100 µM
TGI (LOX IMVI): >100 µM
GI50 (LOX IMVI): > 100 µM
CC50 (LOX IMVI): > 100 µM
TGI (A498): >100 µM
GI50 (A498): > 100000 nM
CC50 (A498): > 100 µM

Source: article PMC12736255, “Reinvestigating Pyrrol-2-One-Based Compounds: From Antimicrobial Agents to Promising Antitumor Candidates” (Pharmaceuticals, 2025)
